Test results reported in patent US20230165965A1, “NEW COUMARIN-POLYMER CONJUGATES AND USES THEREOF” (Onyel Biotech S.r.l., priority 2020, published 2023).
Like-named read-outs stand apart in the source and are kept apart here. One block for each compound: values may come before it.

Legend:
[1] = Atomic force measurement (AFM) of hydrogel Young's modulus; format: physicochemical; settings: 1-photon UV mediated cycloaddition
Procedure: With the aim to provide glass surface HCCA-groups for covalent bonding HCC-branched polymers solutions were drop-cast onto glass coverslip previously functionalized with HCCA- as described in Section 10. HCC-4arm PEG and HCC-8arm PEG were dissolved in PBS (300 mg/mL) at room temperature under agitation. HCC-Gel was dissolved in PBS (100 mg/mL) under agitation at 60° C. for 10 min. When coverslips were used, a second coverslip was placed on top of the drop of HCC-polymeric solutions to limit water evaporation during the irradiation process. […] Laser power is measured before objective back aperture, corresponding to about 1% of the power on the sample plane. […]
For crosslinking reaction analysis, 5 μL CMMC-4 arm PEG (300 mg/mL) or CMMC-Gel (100 mg/mL) solution was located in a humid chamber at 3 cm from a 365 nm UV LED Gen 2 Emitter LZ4-04UV00 (Led Engin) and irradiated for different minutes as reported. When CMMC-Gel solution was analysed at different concentrations (100 mg/mL, 120 mg/mL, 140 mg/mL, 160 mg/mL, 180 mg/mL and 200 mg/mL), 5 μL of solution was located in a humid chamber at 3 cm from a 365 nm UV LED Gen 2 Emitter LZ4-04UV00 (Led Engin) and irradiated for 3 minutes. […]
The Young's modulus was calculated applying a fit of the Hertz model to the force curve, assuming a Poisson ratio of 0.5. […]

Fibroblasts (FBs) = settings: ΔZ up to 150 μm, interspace down to 10 μm
Procedure: For 3D cell laden culture, 10^4 cells were seeded into Matrigel, or Matrigel or CMMC-Gel exposed to UV light for 3 minutes at an irradiation distance of 3 millimeters, located in a 24 multiwell culture dish, cultured for 2 days at 37° C. and 5% CO2 in cell incubator before performing cell viability assay as described above. […] 2P-cell laden constructs were analyzed by imaging or AFM as described above.

mCherry+FBs = settings: for organization of donor mCherry+FBs: under epimysium, 21 days
Procedure: (§1) Mice were anaesthetized using i.p. injection of Zoletil® 50/50 (40 mg/kg) and Rompun® 2% Xilazina (5 mg/kg) in physiologic solution. Induction of deep surgical anaesthesia was confirmed by absence of reaction to hind foot pinch. The surgical procedure underwent in aseptic conditions (skin preparation, sterilized instruments, gloves and drapes). […] For blood flow analysis, Rhodamine B isothiocyanate-Dextran (Sigma, R9379) was injected in tail vein at 50 mg/mL in physiologic solution. When required, skin wound was closed with Vicryl 6-0 suture and no movement or space restriction were applied to animals after treatments. At the required time point, animals were deeply anesthetized, subjected to stereomicroscope and/or 2P intravital imaging, then sacrificed for tissues collection.

skeletal muscle = settings: GFP+MuSC/mCherry+FB-laden, i3D bioprinted
Procedure: as §1
ImageJ software were used for adjustments of levels and contrast, maximum and standard deviation intensity projections, 3D reconstructions and thresholding to create binary mask used for directionality and ferret angle measurements. To quantify the directionality of i3D bioprinted cells, at least 9 fluorescence images of independent biological triplicates for each sample were converted in binary masks, then analyzed with directionality plugin of ImageJ software (that indicates the amount of structures in a given direction). […]

[2] = tested on: human small intestinal organoids (hSIOs); format: cell-based; settings: open square-box hydrogel, up to 8 days of culture
Description: (§2) ImageJ software were used for adjustments of levels and contrast, maximum and standard deviation intensity projections, 3D reconstructions and thresholding to create binary mask used for directionality and ferret angle measurements. To quantify the directionality of i3D bioprinted cells, at least 9 fluorescence images of independent biological triplicates for each sample were converted in binary masks, then analyzed with directionality plugin of ImageJ software (that indicates the amount of structures in a given direction). To quantify the shape of enclosed hSIOs, at least 9 fluorescence images of independent biological triplicates for each sample were converted in binary masks, then analyzed with measure plugin of ImageJ software to quantify the Feret's angle (the angle between the longest distance of the axis of any two points along the selection boundary (Feret's diameter) and a line parallel to the x-axis of the image).

HUVEC cells = settings: seeded on hydrogels
Procedure: HUVEC were transduced with a lentiviral vector encoding for eGFP (3) and cultured in Endothelial Growth Media (EGM, Lonza). […] After culture, cells were fixed in 4% (w/v) paraformaldehyde (PFA, Sigma-Aldrich) in PBS for 7 min at room temperature and maintained at 4° C. in PBS until use. […] After culture, cells were fixed in 4% (w/v) paraformaldehyde (PFA, Sigma-Aldrich) in PBS for 7 min at room temperature and maintained at 4° C. in PBS until use.

[3] = tested on: Murine muscle-derived stem cells (MuSC)
Procedure: Cells were expanded for 1 passage at 37° C. in cell incubator, using proliferating medium composed by DMEM supplemented with 20% horse serum, 10% fetal bovine serum (Gibco), 1% chicken embryo extract (Sera Laboratories International), bFGF ([…], Invitrogen #PHG0264) and 1% Pen/Strep (Thermofisher). […] Samples were cultured in proliferating media and analyzed 2 days after 3D bioprinting (cell directionality was quantified as reported above). […] After 5 days of culture in proliferating medium, differentiation medium (DMEM supplemented with 2% horse serum and 1% Pen/Strep) was used for the following 5 days of cell culture. After 10 days, samples were fixed in 4% (w/v) paraformaldehyde (PFA, Sigma-Aldrich) in PBS for 7 min at room temperature and maintained at 4° C. in PBS until use.
as §2

[4] = Single-photon absorption spectra analysis of coumarin derivatives; format: physicochemical
Procedure: Table 1, below, reports the absorbance spectra analysis of selected coumarin derivatives dissolved in PBS at pH 7.4, the maximum single photon absorption wavelengths in specific solvents are indicated.
Selected coumarin derivatives were dissolved in DMSO at a concentration of 5 mg/ml and diluted 1:500 in PBS, pH 7.4. The absorption spectra were recorded on an Evolution 201 UV-Vis spectrophotometer (Thermo Fisher Scientific, Waltham, Mass., USA) in the wavelength range of 250-450 nm.

Compound: 7-(carboxymethoxy)-4-methylcoumarin-gelatin [CMMC-Gel]
- elastic modulus with increasing irradiation time [1]: increases to asymptotic values

Compound: 7-hydroxycoumarin-3-carboxamide-gelatin [HCC-Gel]
- adhesion of GFP FBs to parallelepiped-shaped hydrogels (Fibroblasts (FBs)): efficiently adhere
- localization of donor mCherry+FBs (mCherry+FBs; intra-dermal injection and i3D bioprinting across epidermis, 14 days): Elongated localization
- organization of donor mCherry+FBs (mCherry+FBs; i3D bioprinted parallelepiped-shaped constructs): elongated clusters
- organization of donor mCherry+FBs (mCherry+FBs; injected only (no i3D bioprinting)): rounded clusters
- de novo skeletal muscle tissue formation (skeletal muscle; 7 days): supports de novo skeletal muscle tissue formation
- organization of donor GFP cells (skeletal muscle; one week): confined bundle of elongated GFP cells
- columnar epithelium of enclosed hSIOs [2]: well-developed columnar epithelium
- adhesion and culture of HUVEC cells (HUVEC cells): supported adhesion and culture
- cell directionality of MuSC ([3]; cuboid-shaped structures): randomly oriented
- cell directionality of MuSC ([3]; elongated-shaped structures): oriented along major axis of the 3D structures
- myotube formation ([3]; parallelepiped-shaped structures, 10 days of culture): support the formation of aligned multinucleated myotubes

Compound: O=c1cc(C(F)(F)F)c2ccc(O)cc2o1 [7-Hydroxy-4-(trifluoromethyl)coumarin]
- Abs λ ([4]; Solvent: Ethanol): 383 nm

Compound: Cc1cc(=O)oc2cc(O)ccc12 [7-Hydroxy-4-methylcoumarin]
- Abs λ ([4]; Solvent: 95% Ethanol): 322 nm

Compound: CCOC(=O)c1cc2ccc(O)cc2oc1=O [Ethyl 7-Hydroxycoumarin-3-carboxylate]
- Abs λ ([4]; Solvent: Ethanol): 403 nm

Now from value to compound:

- Abs λ ([4]; Solvent: Methanol): 340 nm
Compound: Cc1c(CC(=O)O)c(=O)oc2cc(N)ccc12 [7-Amino-4-methyl-3-coumarinylacetic acid]

- Abs λ ([4]; Solvent: Ethanol): 321 nm
Compound: Cc1cc(=O)oc2cc(OCC(=O)O)ccc12 [7-Carboxymethoxy-4-methylcoumarin]

- Abs λ ([4]; solvent not given): 413 nm
Compound: O=C(ON1C(=O)CCC1=O)c1cc2ccc(O)cc2oc1=O [7-Hydroxycoumarin-3-carboxylic acid N-succinimidyl ester]

- Abs λ ([4]; Solvent: 95% Ethanol): 325 nm
Compound: O=c1ccc2ccc(O)cc2o1 [7-Hydroxycoumarin]
